Assay results as given in patent US20230265151A1, “GIP/GLP1 CO-AGONIST COMPOUNDS” (priority 2020, published 2023).
Read-outs that look alike come from different tables or passages of the source.

Experiments:
Assay type in all cases: cell-based
hGIPR = target: T1, hGIPR (Homo sapiens, UniProt P48546); assay: Functional cAMP formation (HTRF) in HEK-293 clonal cells expressing hGIPR, 0.1% bovine casein, without or with 1.0% human serum albumin; conditions: for EC50: geometric mean
T1 construct: expressed in transfected cells
T1 sequence (P48546 22-466): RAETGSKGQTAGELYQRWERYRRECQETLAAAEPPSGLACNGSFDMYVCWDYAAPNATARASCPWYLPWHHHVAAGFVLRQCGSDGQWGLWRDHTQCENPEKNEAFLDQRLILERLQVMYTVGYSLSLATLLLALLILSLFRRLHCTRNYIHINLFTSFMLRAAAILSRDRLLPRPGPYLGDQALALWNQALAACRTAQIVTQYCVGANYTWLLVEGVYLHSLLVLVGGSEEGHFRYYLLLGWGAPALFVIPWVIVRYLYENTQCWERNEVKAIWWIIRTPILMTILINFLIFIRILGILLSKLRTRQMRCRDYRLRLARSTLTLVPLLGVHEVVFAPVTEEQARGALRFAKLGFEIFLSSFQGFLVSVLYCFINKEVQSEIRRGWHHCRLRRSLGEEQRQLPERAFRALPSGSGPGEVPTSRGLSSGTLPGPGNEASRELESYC
In short: (§1)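 Readings of the HTRF 665/620 nm ratio, which falls as cAMP rises, were converted to nM cAMP using a standard curve after 30 min peptide exposure at 37° C.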

hGCGR = target: T2, hGCGR (Homo sapiens, UniProt P47871); assay: Functional cAMP formation (HTRF) in HEK-293 clonal cells expressing hGCGR, 0.1% bovine casein, without or with 1.0% human serum albumin
T2 construct: expressed in transfected cells
T2 sequence (P47871 26-477): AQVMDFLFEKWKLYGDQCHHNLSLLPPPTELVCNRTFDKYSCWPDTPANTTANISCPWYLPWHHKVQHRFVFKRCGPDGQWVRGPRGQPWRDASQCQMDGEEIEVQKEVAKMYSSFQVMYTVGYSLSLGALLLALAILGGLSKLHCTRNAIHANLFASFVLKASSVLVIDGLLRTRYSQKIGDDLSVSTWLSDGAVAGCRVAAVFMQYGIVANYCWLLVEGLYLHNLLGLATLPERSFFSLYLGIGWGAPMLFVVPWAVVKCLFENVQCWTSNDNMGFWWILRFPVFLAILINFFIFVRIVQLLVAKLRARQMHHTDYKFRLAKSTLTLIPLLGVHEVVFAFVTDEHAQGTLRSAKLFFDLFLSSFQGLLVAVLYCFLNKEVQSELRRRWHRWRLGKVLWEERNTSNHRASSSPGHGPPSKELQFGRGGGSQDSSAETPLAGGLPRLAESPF
In short: as §1

hGLP-1R = hGLP-1R (Homo sapiens, UniProt P43220); assay: Functional cAMP formation (HTRF) in HEK-293 clonal cells expressing hGLP-1R, 0.1% bovine casein, without or with 1.0% human serum albumin; parameters: expressed in transfected cells; conditions: for EC50: geometric mean; for Emax: percent of maximal response to GLP-1(7-36)NH2
Sequence of hGLP-1R (P43220 24-463): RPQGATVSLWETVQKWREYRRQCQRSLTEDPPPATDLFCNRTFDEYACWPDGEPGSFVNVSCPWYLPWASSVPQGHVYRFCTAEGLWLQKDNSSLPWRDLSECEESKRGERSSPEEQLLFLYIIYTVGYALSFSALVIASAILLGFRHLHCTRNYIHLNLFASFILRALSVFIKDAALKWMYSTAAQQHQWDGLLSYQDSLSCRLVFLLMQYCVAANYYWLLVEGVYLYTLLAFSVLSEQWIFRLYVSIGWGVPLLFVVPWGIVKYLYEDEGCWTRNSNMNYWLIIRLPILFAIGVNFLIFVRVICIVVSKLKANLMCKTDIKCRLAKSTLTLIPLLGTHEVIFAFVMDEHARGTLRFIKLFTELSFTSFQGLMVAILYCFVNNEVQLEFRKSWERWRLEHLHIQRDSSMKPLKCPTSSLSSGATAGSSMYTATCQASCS
In short: as §1

[1] = hGIPR EC50, nM (SEM, n), cAMP, 37° C., 0.1% bovine casein (no human serum albumin)
[2] = hGCGR EC50, nM (SEM, n), cAMP, 37° C., 0.1% bovine casein (no human serum albumin), geometric mean

Question: How did the Emax (hGIPR; HEK293, read-out: hGIPR Emax, % ± SEM, percent of maximal response to GIP(1-42)NH2, 37° C., 0.1% bovine casein, arithmetic mean) turn out when `CC[C@H](C)[C@H](NC(=O)[C@H](CC(C)C)NC(=O)[C@](C)(Cc1ccccc1)NC(=O)[C@H](CCCCNC(=O)COCCOCCNC(=O)COCCOCCNC(=O)CC[C@H](NC(=O)CCCCCCCCCCCCC(=O)O)C(=O)O)NC(=O)[C@@H](NC(=O)[C@](C)(Cc1ccccc1)NC(=O)[C@H](CCC(=O)O)NC(=O)C(C)(C)NC(=O)[C@H](CCC(N)=O)NC(=O)[C@H](C)NC(=O)[C@H](CCCCNC(=O)COCCOCCNC(=O)COCCOCCNC(=O)CC[C@H](NC(=O)CCCCCCCCCCCCC(=O)O)C(=O)O)NC(=O)[C@H](CCCN)NC(=O)[C@H](CC(=O)O)NC(=O)[C@H](CC(C)C)NC(=O)[C@](C)(CC(C)C)NC(=O)[C@@H](NC(=O)C(C)(C)NC(=O)[C@H](Cc1ccncc1)NC(=O)[C@H](CC(=O)O)NC(=O)[C@H](CO)NC(=O)[C@@H](NC(=O)[C@](C)(Cc1ccccc1F)NC(=O)[C@@H](NC(=O)CNC(=O)[C@H](CCC(=O)O)NC(=O)C(C)(C)NC(=O)[C@@H](N)Cc1ccc(O)cc1)[C@@H](C)O)[C@@H](C)O)[C@@H](C)CC)[C@@H](C)CC)C(=O)N[C@@H](CCC(=O)O)C(=O)NCC(=O)NCC(=O)N1CCC[C@H]1C(=O)N[C@@H](CO)C(=O)N[C@@H](CO)C(=O)NCC(=O)N[C@@H](C)C(=O)N1CCC[C@H]1C(=O)N1CCC[C@H]1C(=O)N1CCC[C@H]1C(=O)N[C@@H](CO)C(N)=O` [Example 121] was run?
Answer: The Emax was 92.8%.

Question: What about the EC50 (hGIPR; hGIPR EC50, nM (SEM, n), cAMP, incubated at 37° C., 0.1% bovine casein (no human serum albumin)) of the same molecule?
Answer: Its EC50 is 0.0271 nM.

Question: And the EC50 (hGCGR; hGCGR EC50, nM (SEM, n), cAMP, incubated at 37° C., 0.1% bovine casein (no human serum albumin), geometric mean)?
Answer: The EC50 was over 9950 nM.

Question: What about the EC50 (hGLP-1R; hGLP-1R EC50, nM (SEM, n), cAMP, incubated at 37° C., 0.1% bovine casein (no human serum albumin)) of the same molecule?
Answer: Its EC50 is 8.95 nM.

Question: For `CC[C@H](C)[C@H](NC(=O)[C@H](CC(C)C)NC(=O)[C@](C)(Cc1ccc(O)cc1)NC(=O)[C@@H](CCC(=O)O)NC(=O)[C@@H](NC(=O)[C@H](Cc1ccccc1)NC(=O)[C@H](CCC(=O)O)NC(=O)C(C)(C)NC(=O)[C@H](CCC(N)=O)NC(=O)[C@H](C)NC(=O)[C@H](CCCCNC(=O)COCCOCCNC(=O)COCCOCCNC(=O)CC[C@H](NC(=O)CCCCCCCCCOc1ccc(C(=O)O)cc1)C(=O)O)NC(=O)[C@H](CCCN)NC(=O)[C@H](CC(=O)O)NC(=O)[C@H](CC(C)C)NC(=O)[C@](C)(CC(C)C)NC(=O)[C@@H](NC(=O)[C@H](CO)NC(=O)[C@H](Cc1ccncc1)NC(=O)[C@H](CC(=O)O)NC(=O)[C@H](CO)NC(=O)[C@@H](NC(=O)[C@](C)(Cc1ccccc1F)NC(=O)[C@@H](NC(=O)CNC(=O)[C@H](CCC(=O)O)NC(=O)C(C)(C)NC(=O)[C@@H](N)Cc1ccc(O)cc1)[C@@H](C)O)[C@@H](C)O)[C@@H](C)CC)[C@@H](C)CC)C(=O)N[C@@H](CCC(=O)O)C(=O)NCC(=O)NCC(=O)N1CCC[C@H]1C(=O)N[C@@H](CO)C(=O)N[C@@H](CO)C(=O)NCC(=O)N[C@@H](C)C(=O)N1CCC[C@H]1C(=O)N1CCC[C@H]1C(=O)N1CCC[C@H]1C(=O)N[C@@H](CO)C(=O)N[C@@H](CCCCNC(=O)COCCOCCNC(=O)COCCOCCNC(=O)CC[C@H](NC(=O)CCCCCCCCCOc1ccc(C(=O)O)cc1)C(=O)O)C(N)=O` [Example 273], which Emax (hGIPR; HEK293, read-out: hGIPR Emax, % ± SEM, 0.1% bovine casein and 1.0% human serum albumin, 37° C., percent of maximal response to GIP(1-42)NH2) is on record?
Answer: The Emax was 88.4%.

Question: And the EC50 (hGIPR; [1])?
Answer: Its EC50 is 0.0166 nM.

Question: What about the EC50 (hGCGR; hGCGR EC50, nM (SEM, n), 0.1% bovine casein and 1.0% human serum albumin, 37° C., geometric mean) of the same molecule?
Answer: Its EC50 is over 9950 nM.

Question: What about the EC50 (hGCGR; [2]) of the same molecule?
Answer: Its EC50 is over 9950 nM.

Question: And the Emax (hGLP-1R; HEK293, read-out: hGLP-1R Emax, % ± SEM, 0.1% bovine casein and 1.0% human serum albumin, 37° C.)?
Answer: The Emax was 90.5%.

Question: Which Emax (hGIPR; HEK293, read-out: hGIPR Emax, % ± SEM, cAMP, 37° C., 0.1% bovine casein and 1.0% human serum albumin, percent of maximal response to GIP(1-42)NH2) does the source give for `CC[C@H](C)[C@H](NC(=O)[C@H](CC(C)C)NC(=O)[C@](C)(Cc1ccc(O)cc1)NC(=O)[C@@H](CCC(=O)O)NC(=O)[C@@H](NC(=O)[C@H](Cc1ccccc1)NC(=O)[C@H](CCCCNC(=O)COCCOCCNC(=O)CC[C@H](NC(=O)CCCCCCCCCOc1ccc(C(=O)O)cc1)C(=O)O)NC(=O)C(C)(C)NC(=O)[C@H](CCC(N)=O)NC(=O)[C@H](C)NC(=O)[C@H](CCCCNC(=O)COCCOCCNC(=O)CC[C@H](NC(=O)CCCCCCCCCOc1ccc(C(=O)O)cc1)C(=O)O)NC(=O)[C@H](CCCN)NC(=O)[C@H](CC(=O)O)NC(=O)[C@H](CC(C)C)NC(=O)[C@](C)(CC(C)C)NC(=O)[C@@H](NC(=O)C(C)(C)NC(=O)[C@@H](NC(=O)[C@H](CC(=O)O)NC(=O)[C@H](CO)NC(=O)[C@@H](NC(=O)[C@](C)(Cc1ccccc1F)NC(=O)[C@@H](NC(=O)CNC(=O)[C@H](CCC(=O)O)NC(=O)C(C)(C)NC(=O)[C@@H](N)Cc1ccc(O)cc1)[C@@H](C)O)[C@@H](C)O)C(C)C)[C@@H](C)CC)[C@@H](C)CC)C(=O)N[C@@H](CCC(=O)O)C(=O)NCC(=O)NCC(=O)N1CCC[C@H]1C(=O)N[C@@H](CO)C(=O)N[C@@H](CO)C(=O)NCC(=O)N[C@@H](C)C(=O)N1CCC[C@H]1C(=O)N1CCC[C@H]1C(=O)N1CCC[C@H]1C(=O)N[C@@H](CO)C(N)=O` [Example 378] here?
Answer: The Emax was 81.2%.

Question: What about the Emax (hGIPR; HEK293, read-out: hGIPR Emax, % ± SEM, cAMP, 37° C., 0.1% bovine casein, percent of maximal response to GIP(1-42)NH2, arithmetic mean) of the same molecule?
Answer: Its Emax is 93.5%.

Question: And the EC50 (hGIPR; [1])?
Answer: The EC50 was 0.0132 nM.

Question: What about the EC50 (hGCGR; [2]) of the same molecule?
Answer: Its EC50 is over 9950 nM.

Question: What about the EC50 (hGCGR; hGCGR EC50, nM (SEM, n), cAMP, 37° C., 0.1% bovine casein and 1.0% human serum albumin, geometric mean (SEM, n)) of the same molecule?
Answer: Its EC50 is over 9950 nM.

Question: And the Emax (hGLP-1R; HEK293, read-out: hGLP-1R Emax, % ± SEM, cAMP, 37° C., 0.1% bovine casein, arithmetic mean)?
Answer: Its Emax is 98.9%.

Question: What about the EC50 (hGLP-1R; hGLP-1R EC50, nM (SEM, n), cAMP, 37° C., 0.1% bovine casein (no human serum albumin)) of the same molecule?
Answer: Its EC50 is 0.166 nM.

Question: For `CC[C@H](C)[C@H](NC(=O)[C@H](CC(C)C)NC(=O)[C@](C)(Cc1ccc(O)cc1)NC(=O)[C@@H](CCC(=O)O)NC(=O)[C@@H](NC(=O)[C@H](Cc1ccccc1)NC(=O)[C@H](CCC(=O)O)NC(=O)C(C)(C)NC(=O)[C@H](CCC(N)=O)NC(=O)[C@H](C)NC(=O)[C@H](CCCCNC(=O)COCCOCCNC(=O)[C@@H](N)CCCCNC(=O)CC[C@H](NC(=O)CCCCCCCCCCCCC(=O)O)C(=O)O)NC(=O)[C@H](CCCN)NC(=O)[C@H](CC(=O)O)NC(=O)[C@H](CC(C)C)NC(=O)[C@](C)(CC(C)C)NC(=O)[C@@H](NC(=O)[C@H](CO)NC(=O)[C@H](Cc1ccncc1)NC(=O)[C@H](CC(=O)O)NC(=O)[C@H](CO)NC(=O)[C@@H](NC(=O)[C@](C)(Cc1ccccc1F)NC(=O)[C@@H](NC(=O)CNC(=O)[C@H](CCC(=O)O)NC(=O)C(C)(C)NC(=O)[C@@H](N)Cc1ccc(O)cc1)[C@@H](C)O)[C@@H](C)O)[C@@H](C)CC)[C@@H](C)CC)C(=O)N[C@@H](CCC(=O)O)C(=O)NCC(=O)NCC(=O)N[C@@H](CCCCNC(=O)COCCOCCNC(=O)[C@@H](N)CCCCNC(=O)CC[C@H](NC(=O)CCCCCCCCCCCCC(=O)O)C(=O)O)C(=O)N[C@@H](CO)C(=O)N[C@@H](CO)C(=O)NCC(=O)N[C@@H](C)C(=O)N1CCC[C@H]1C(=O)N1CCC[C@H]1C(=O)N1CCC[C@H]1C(=O)N[C@@H](CO)C(N)=O` [Example 35], which EC50 (hGIPR; 0.1% bovine casein and 1.0% human serum albumin, 37° C., read-out: hGIPR EC50, nM (SEM, n)) is on record?
Answer: The EC50 was 0.35 nM.

Question: And the Emax (hGIPR; HEK293, 0.1% bovine casein and 1.0% human serum albumin, 37° C., percent of maximal response to GIP(1-42)NH2, read-out: hGIPR Emax, % ± SEM)?
Answer: The Emax was 91.7 ± 1.28%.

Question: And the Emax (hGIPR; HEK293, percent of maximal response to GIP(1-42)NH2, 37° C., 0.1% bovine casein, arithmetic mean, read-out: hGIPR Emax, % ± SEM)?
Answer: Its Emax is 97 ± 2.32%.

Question: And the EC50 (hGIPR; cAMP, incubated at 37° C., 0.1% bovine casein (no human serum albumin), read-out: hGIPR EC50, nM (SEM, n))?
Answer: Its EC50 is 0.0162 nM.

Question: And the EC50 (hGCGR; 0.1% bovine casein and 1.0% human serum albumin, 37° C., geometric mean, read-out: hGCGR EC50, nM (SEM, n))?
Answer: The EC50 was over 9950 nM.

Question: And the EC50 (hGCGR; cAMP, incubated at 37° C., 0.1% bovine casein (no human serum albumin), geometric mean, read-out: hGCGR EC50, nM (SEM, n))?
Answer: The EC50 was over 9950 nM.

Question: What about the EC50 (hGLP-1R; 0.1% bovine casein and 1.0% human serum albumin, 37° C., read-out: hGLP-1R EC50, nM (SEM, n)) of the same molecule?
Answer: Its EC50 is 16.4 nM.
